For orientation: IC50 means the midpoint of a concentration-inhibition curve. What is called CC50 is the concentration that lowers cell viability or growth by half.

The results in this text go back to patent US9676771B2, “Compounds for inhibiting drug-resistant strains of HIV-1 integrase” (priority 2013, dated 2017).

Where two headings read alike, the source gives them in different places. Bounds are passed on as bounds.

One series has as its target HIV-1 integrase (Human immunodeficiency virus type 1 group M subtype B, UniProt P12497). Nature of the series: biochemical. The class given is biochemical. A digest of the protocol:
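Compounds or DMSO added to 20 nM DNA and 400 nM integrase in 50 mM MOPS pH 7.2, 7.5 mM MgCl2, 14 mM 2-mercaptoethanol; 2 h at 37° C, quenched with formamide/SDS loading buffer. Products resolved on gels, imaged and quantified by densitometry.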

Series [1] deals with HIV-1 constructs containing mutant IN Y143R. Nature of the series: microbe, parasite or virus in culture. The class given is cell-based. The note with it: Human immunodeficiency virus 1. From the text: (§1) Single-Round HIV-1 Infectivity Assay.
(§2) Human embryonyl kidney cell culture cell line 293 was acquired from the American type Culture Collection (ATCC).
(§3) The virus-containing supernatants were then harvested, clarified by low-speed centrifugation, filtrated, and diluted for preparation in infection assays. […] Activity was normalized to infectivity in the absence of target compounds. KaleidaGraph (Synergy Software, Reading, Pa.) was used to perform regression analysis on the data. EC50 values were determined from the fit model.
(§4) pNLNgoMIVR^−ΔEnv.LUC has been described previously (Zhao et al. 2008). The integrase codon reading frame was removed from pNLNgoMIVR^−ΔEnv LUC (between KpnI and SalI sites) and placed between the KpnI and SalI sites of pBluescript II KS+. Using that construct as the wild-type template, we prepared the following HIV-1 Integrase-resistant mutants via the QuikChange II XL (Stratagene, La Jolla, Calif.) site-directed mutagenesis protocol: H51Y, T66I, E92Q, G118R, Y143R, Q148H, Q148K, N155H, R263K, G140S+Q148H, G140A+Q148K, E138K+Q148K, and H51Y+R263K. The following sense with cognate antisense (not shown) oligonucleotides (Integrated DNA Technologies, Coralville, Iowa) were used in the mutagenesis: H51Y, 5′-[…]-3; T66I, 5′-[…]-3′; E92Q, 5′-[…]-3′; G118R, 5′-[…]-3′; E138K, 5′-[…]-3; G140A, 5′-[…]-3; G140S, 5′-[…]-3′; Y143R, 5′-[…]-3′; Q148H, 5′-[…]-3′; Q148K, 5′-[…]-3; N155H, 5′-[…]-3′; R263K 5′-[…]-3′. The double mutation G140S+Q148H was constructed by using the previously generated Q148H mutant and the appropriate oligonucleotide for the 2nd mutation, G140S. The double mutation G140A+Q148K was made by using the Q148K mutant and the appropriate oligonucleotide for the 2nd mutation, G140A. The double mutation E138K+Q148K was made by using the Q148K mutant and the appropriate oligonucleotide for the 2nd mutation, E138K. The double mutation H51Y+R263K was constructed by using the previously generated H51Y mutant and the appropriate oligonucleotides for the 2nd mutation, R263K. The DNA sequence of each construct was verified independently by DNA sequence determination. […] These DNA sequences were additionally checked independently by DNA sequence determination.

Series [2] deals with HIV-1 constructs containing mutant IN G140S-Q148H. The experiment in a line: microbe, parasite or virus in culture. The following applies: Human immunodeficiency virus 1. The class given is cell-based.
Source text: as §1, §2, §3, §4

Series [3] concerns HIV-1 constructs containing mutant IN N155H. Nature of the series: microbe, parasite or virus in culture. The class given is cell-based. The following applies: Human immunodeficiency virus 1.
Source text: as §1, §2, §3, §4

Series [4] has as its system HIV-1 constructs containing wild-type IN. The experiment in a line: microbe, parasite or virus in culture. The class given is cell-based. The note with it: for EC50: Human immunodeficiency virus 1, WT IN, read-out: EC50 (nM, WT).
Another series is described as follows: in vitro. The class given is cell-based, human. The following applies: human, 50% reduction in the level of ATP in HOS cells. A digest of the protocol:
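Cells exposed to compounds over a concentration range for 48 hrs at 37° C. Viability read as cellular ATP by luciferase (ATPlite) luminescence after lysis, normalised to untreated cells; CC50 derived by regression fit.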

Where [5] appears, read: Table 7, 3′-processing, read-out: IC50 (μM) 3′-P.
The mark [6] stands for this setting: Table 7, strand transfer, read-out: IC50 (μM) ST.
Where [7] appears, read: Table 8, read-out: EC50 (nM, IN mutants) Y143R.
[8] abbreviates: Table 8, read-out: EC50 (nM, IN mutants) G140S/Q148H.
Setting [9] is: Table 8, read-out: EC50 (nM, IN mutants) N155H.
Setting [10] is: Table 10, strand transfer, read-out: IC50 (nM, ST).

As for `COc1ccc2c(N)c(C(=O)NCc3ccc(F)cc3F)c(=O)n(O)c2n1` [XZ406, 4-amino-N-(2,4-difluorobenzyl)-1-hydroxy-7-methoxy-2-oxo-1,2-dihydro-1,8-naphthyridine-3-carboxamide], the IC50 on HIV-1 integrase (Table 4, 3′-processing, read-out: IC50 (3^+-Processing)) was 18000 ± 2000 nM; on HIV-1 integrase (Table 4, strand transfer, read-out: IC50 (Strand Transfer)) it was 11 ± 2 nM. The EC50 in series [1] (Table 5, read-out: EC50 (nM, IN Mutants) Y143R) stood at 62.2 ± 25.6 nM; in series [2] (Table 5, G1405-Q148H double mutant, read-out: EC50 (nM, IN Mutants) SH), 3600 ± 1600 nM; in series [3] (Table 5, read-out: EC50 (nM, IN Mutants) N155H), 400 ± 101 nM; in series [4] (Table 5), 30.3 ± 9.1 nM. Also, the SI in series [4] (Table 5, ratio of CC50 to EC50) was 73. In “in vitro” (Table 5), the CC50 amounted to 2200 ± 430 nM.

On to `Nc1c(C(=O)NCc2ccc(F)cc2F)c(=O)n(O)c2ncc(Br)cc12` [XZ418, 4-Amino-6-bromo-N-(2,4-difluorobenzyl)-1-hydroxy-2-oxo-1,2-dihydro-1,8-naphthyridine-3-carboxamide], for which the IC50 was 7900 ± 800 nM at HIV-1 integrase (setting [5]) and 3.2 ± 0.5 nM at HIV-1 integrase (setting [6]). Moreover, the EC50 amounted to 1.95 nM in series [1] (setting [7]), 112 nM in series [2] (setting [8]), 18.8 nM in series [3] (setting [9]) and 0.99 nM in series [4] (Table 8). The CC50 in the series “in vitro” (Table 8) is more than 250000 nM.

With `Nc1c(C(=O)NCc2ccc(F)cc2F)c(=O)n(O)c2ncc(-c3ccccc3)cc12` [XZ420, 4-Amino-N-(2,4-difluorobenzyl)-1-hydroxy-2-oxo-6-phenyl-1,2-dihydro-1,8-naphthyridine-3-carboxamide], the IC50 at HIV-1 integrase (setting [5]) is 17900 ± 1600 nM; on HIV-1 integrase (setting [6]) it was 1.6 ± 0.3 nM. Further, the EC50 in series [1] (setting [7]) was 3.7 nM; in series [2] (setting [8]), 39.6 nM; in series [3] (setting [9]) it was 18.7 nM; in series [4] (Table 8) it was 3.4 ± 0.7 nM. Moreover, in “in vitro” (Table 8), the 50% cytotoxic concentration (CC50) worked out at 184000 nM.

With `O=C(NCc1ccc(F)cc1F)c1c(O)c2cc(CCCCCO)cnc2n(O)c1=O` [XZ421, N-(2,4-Difluorobenzyl)-1,4-dihydroxy-6-(5-hydroxypentyl)-2-oxo-1,2-dihydro-1,8-naphthyridine-3-carboxamide], the IC50 stood at 14300 ± 1100 nM on HIV-1 integrase (setting [5]) and 12.4 ± 2.6 nM at HIV-1 integrase (setting [6]). For the same molecule, the EC50 in series [1] (setting [7]) is 8.3 nM; in series [2] (setting [8]), 28.5 nM; in series [3] (setting [9]), 31.6 nM; in series [4] (Table 8) it was 23.7 nM. In addition, the CC50 in “in vitro” (Table 8) is more than 250000 nM.

For the molecule `CN(C)CCCc1cnc2c(c1)c(N)c(C(=O)NCc1ccc(F)cc1F)c(=O)n2O` [XZ425, 4-Amino-N-(2,4-difluorobenzyl)-6-(3-(dimethylamino)propyl)-1-hydroxy-2-oxo-1,2-dihydro-1,8-naphthyridine-3-carboxamide], the IC50 on HIV-1 integrase (setting [5]) is 3000 ± 400 nM; at HIV-1 integrase (setting [6]) it was 14.3 ± 2.2 nM. Further, the EC50 in series [1] (setting [7]) came to 7 ± 2.3 nM; in series [2] (setting [8]), 31.7 nM; in series [3] (setting [9]), 29.4 nM; in series [4] (Table 8), 6.07 nM. Also, the CC50 in the series “in vitro” (Table 8) was determined as 5000 nM.

Take `Nc1c(C(=O)NCc2ccc(F)cc2F)c(=O)n(O)c2ncc(CCCCCCOC(=O)c3ccccc3)cc12` [XZ427, 6-(5-Amino-6-((2,4-difluorobenzyl)carbamoyl)-8-hydroxy-7-oxo-7,8-dihydro-1,8-naphthyridin-3-yl)hexyl benzoate]: the values for the 50% inhibitory concentration (IC50) at HIV-1 integrase (setting [5]) and on HIV-1 integrase (setting [6]) were 143000 ± 14000 nM and 3340 ± 557 nM, respectively. In addition, the EC50 was found to be 3.5 nM in series [1] (setting [7]), 21 nM in series [2] (setting [8]), 5.4 nM in series [3] (setting [9]) and 4.8 nM in series [4] (Table 8). For the same molecule, the half-maximal cytotoxic concentration (CC50) in “in vitro” (Table 8) was 14400 nM.

For the molecule `Nc1c(C(=O)NCc2ccc(F)cc2F)c(=O)n(O)c2ncc(CCCCc3ccccc3)cc12` [XZ429, 4-Amino-N-(2,4-difluorobenzyl)-1-hydroxy-2-oxo-6-(4-phenylbutyl)-1,2-dihydro-1,8-naphthyridine-3-carboxamide], the IC50 at HIV-1 integrase (setting [5]) is 42000 ± 4000 nM; at HIV-1 integrase (setting [6]) it was 1980 ± 422 nM. Besides, the EC50 was determined as 4.7 nM in series [1] (setting [7]), 128 nM in series [2] (setting [8]), 38.8 nM in series [3] (setting [9]) and 10.6 nM in series [4] (Table 8). Moreover, the CC50 in “in vitro” (Table 8) came out at 12800 nM.

Regarding `Nc1c(C(=O)NCc2ccc(F)cc2F)c(=O)n(O)c2ncc(CCc3ccccc3)cc12` [XZ430, 4-Amino-N-(2,4-difluorobenzyl)-1-hydroxy-2-oxo-6-phenethyl-1,2-dihydro-1,8-naphthyridine-3-carboxamide], the IC50 at HIV-1 integrase (setting [5]) was determined as 48000 ± 4000 nM; on HIV-1 integrase (setting [6]), 14.5 ± 3.4 nM. The EC50 was determined as 5.5 nM in series [1] (setting [7]), 140 nM in series [2] (setting [8]), 21.1 nM in series [3] (setting [9]) and 5.6 nM in series [4] (Table 8). The CC50 in “in vitro” (Table 8) turned out to be 17600 nM.

For `COC(=O)CNc1c(C(=O)NCc2ccc(F)cc2F)c(=O)n(O)c2ncc(CCCCCO)cc12` [XZ431, Methyl 2-((3-((2,4-difluorobenzyl)carbamoyl)-1-hydroxy-6-(5-hydroxypentyl)-2-oxo-1,2-dihydro-1,8-naphthyridin-4-yl)amino)acetate], the IC50 was found to be 2100 ± 500 nM at HIV-1 integrase (setting [5]) and 3.7 ± 0.7 nM on HIV-1 integrase (setting [6]). The EC50 in series [1] (setting [7]) is 3.5 nM; in series [2] (setting [8]), 41.6 nM; in series [3] (setting [9]) it was 11.1 nM; in series [4] (Table 8), 3.3 nM. In the series “in vitro” (Table 8), the CC50 is more than 250000 nM.

In the case of `Nc1c(C(=O)NCc2ccc(F)cc2F)c(=O)n(O)c2ncc(CCCOCCO)cc12` [XZ432, 4-Amino-N-(2,4-difluorobenzyl)-1-hydroxy-6-(3-(2-hydroxyethoxy)propyl)-2-oxo-1,2-dihydro-1,8-naphthyridine-3-carboxamide], the IC50 on HIV-1 integrase (setting [5]) was 1500 ± 400 nM; at HIV-1 integrase (setting [6]) it was 2.5 ± 0.4 nM. In addition, the EC50 in series [1] (setting [7]) came out at 1.2 nM; in series [2] (setting [8]), 35.3 nM; in series [3] (setting [9]), 4.2 nM; in series [4] (Table 8) it was 1.6 nM. The CC50 in “in vitro” (Table 8) was more than 250000 nM.

Turning to `Nc1c(C(=O)NCc2ccc(F)cc2F)c(=O)n(O)c2ncc(CCC(=O)O)cc12` [XZ444, 3-(5-Amino-6-((2,4-difluorobenzyl)carbamoyl)-8-hydroxy-7-oxo-7,8-dihydro-1,8-naphthyridin-3-yl)propanoic acid], the IC50 at HIV-1 integrase (setting [10]) came to 3.9 ± 1.3 nM. For the same molecule, the EC50 stood at 4.9 nM in series [1] (setting [7]), 195 nM in series [2] (setting [8]), 10.3 nM in series [3] (setting [9]) and 1.9 nM in series [4] (Table 8). Moreover, the CC50 in “in vitro” (Table 8) was more than 250000 nM.

`CS(=O)(=O)CCc1cnc2c(c1)c(N)c(C(=O)NCc1ccc(F)cc1F)c(=O)n2O` [XZ445, 4-Amino-N-(2,4-difluorobenzyl)-1-hydroxy-6-(2-(methylsulfonyl)ethyl)-2-oxo-1,2-dihydro-1,8-naphthyridine-3-carboxamide]: the IC50 at HIV-1 integrase (setting [10]) was approximately 0.07 nM. For the same molecule, the EC50 in series [1] (setting [7]) was 27.5 nM; in series [2] (setting [8]) it was 118 nM; in series [3] (setting [9]), 32.8 nM; in series [4] (Table 8) it was 27 nM. For the same molecule, the CC50 in “in vitro” (Table 8) is 95400 nM.

Regarding `Nc1c(C(=O)NCc2ccc(F)cc2F)c(=O)n(O)c2ncc(CCS(=O)(=O)CCN3CCOCC3)cc12` [XZ447, 4-Amino-N-(2,4-difluorobenzyl)-1-hydroxy-6-(2-((2-morpholinoethyl)sulfonyl)ethyl)-2-oxo-1,2-dihydro-1,8-naphthyridine-3-carboxamide], the IC50 on HIV-1 integrase (setting [10]) is 2.5 ± 1.3 nM. Also, the EC50 came out at 109 nM in series [1] (setting [7]), 412 nM in series [2] (setting [8]), 140 nM in series [3] (setting [9]) and 268 nM in series [4] (Table 8). In “in vitro” (Table 8), the CC50 was more than 250000 nM.
